# Experimental data: patent US7973061B2, “Anaplastic lymphoma kinase modulators and methods of use” (Exelixis, Inc., priority 2004, dated 2011)
# Biological target: T1, ALK (baculovirus expressed human ALK kinase domain F1098-K1410) (Homo sapiens, UniProt Q9UM73)
# T1 construct: human ALK kinase domain F1098-K1410; made in house
# Assay: biochemical
# Settings: 1 μM ATP, 4 μM poly-AEKY, 12 nM ALK, 2 hours at ambient temperature; read-out: ALK IC50
# Experimental: Kinase activity and compound inhibition are investigated using one or more of the three assay formats described below. The ATP concentrations for each assay are selected to be close to the Michaelis-Menten constant (KM) for each individual kinase. Dose-response experiments are performed at 10 different inhibitor concentrations in a 384-well plate format. […] Y=Min+(Max−Min)/(1+(X/IC50)^H) Equation (2) Luciferase-Coupled Chemiluminescent Kinase Assay
# ALK biochemical activity was assessed using a Luciferase-Coupled Chemiluminescent Kinase assay (LCCA) format in which kinase activity was measured as the percent ATP remaining following the kinase reaction. ATP remaining after the kinase reaction was detected by luciferase-luciferin-coupled chemiluminescence. […] The mixture was incubated at ambient temperature for 2 hours after which 20 μL luciferase-luciferin mix was added and the chemiluminescent signal read using a Wallac Victor^2 reader. […] Consumption of ATP by ALK can be quantified and utilized as a measure of inhibition of ALK activity by compounds described herein. By employing serial dilutions of compounds to be tested, the ability of test compounds to inhibit ALK activity can be determined.
# T1 sequence (Q9UM73 1098-1410): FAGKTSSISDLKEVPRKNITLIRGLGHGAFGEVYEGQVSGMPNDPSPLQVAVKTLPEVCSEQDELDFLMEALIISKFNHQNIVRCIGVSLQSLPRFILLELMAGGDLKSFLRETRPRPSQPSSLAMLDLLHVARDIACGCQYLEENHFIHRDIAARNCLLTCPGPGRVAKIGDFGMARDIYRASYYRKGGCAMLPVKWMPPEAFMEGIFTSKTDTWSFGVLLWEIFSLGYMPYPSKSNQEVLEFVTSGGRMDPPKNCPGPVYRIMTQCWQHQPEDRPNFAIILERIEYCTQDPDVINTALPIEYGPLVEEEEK
row,Compound,IC50 [nM]
1,"CC(C)C[C@@H](NC(=O)c1csc(CNC(=O)COc2ccc(OC(F)(F)F)cc2)n1)C(N)=O [Entry 202, N~2~-{[2-({[({4-[(trifluoromethyl)oxy]phenyl}oxy)acetyl]amino}methyl)-1,3-thiazol-4-yl]carbonyl}-D-leucinamide]",50 to 500
2,"O=C(COc1ccc(OC(F)(F)F)cc1)NCc1nc(C(=O)NCC2c3ccccc3CCc3ccccc32)co1 [Entry 38, N-(10,11-dihydro-5H-dibenzo[a,d]cyclohepten-5-ylmethyl)-2-({[({4-[(trifluoromethyl)oxy]phenyl}oxy)acetyl]amino}methyl)-1,3-oxazole-4-carboxamide]",50 to 500
3,"O=C(COc1ccc(OC(F)(F)F)cc1)NCc1nc(C(=O)NCCc2cccc(F)c2)cs1 [Entry 14, N-[2-(3-fluorophenyl)ethyl]-2-({[({4-[(trifluoromethyl)oxy]phenyl}oxy)acetyl]amino}methyl)-1,3-thiazole-4-carboxamide]",< 50
4,"O=C(COc1ccc(OC(F)(F)F)cc1)NCc1nc(C(=O)NCCc2ccccc2F)cs1 [Entry 5, N-[2-(2-fluorophenyl)ethyl]-2-({[({4-[(trifluoromethyl)oxy]phenyl}oxy)acetyl]amino}methyl)-1,3-thiazole-4-carboxamide]",< 50
5,"COc1cccc(CCNC(=O)c2csc(CNC(=O)COc3ccc(OC(F)(F)F)cc3)n2)c1OC [Entry 53, N-{2-[2,3-bis(methyloxy)phenyl]ethyl}-2-({[({4-[(trifluoromethyl)oxy]phenyl}oxy)acetyl]amino}methyl)-1,3-thiazole-4-carboxamide]",50 to 500
6,"O=C(COc1ccc(OC(F)(F)F)cc1)NCc1nc(C(=O)NCC2c3ccccc3CCc3ccccc32)cs1 [Entry 4, N-(10,11-dihydro-5H-dibenzo[a,d]cyclohepten-5-ylmethyl)-2-({[({4-[(trifluoromethyl)oxy]phenyl}oxy)acetyl]amino}methyl)-1,3-thiazole-4-carboxamide]",< 50
7,"O=C(COc1ccc(OC(F)(F)F)cc1)NCc1nc(C(=O)NC2CCCc3ccccc32)cs1 (stereo not shown) [Entry 199, N-(1,2,3,4-tetrahydronaphthalen-1-yl)-2-({[({4-[(trifluoromethyl)oxy]phenyl}oxy)acetyl]amino}methyl)-1,3-thiazole-4-carboxamide]",50 to 500
8,"CC1CCC(NC(=O)c2csc(CNC(=O)COc3ccc(OC(F)(F)F)cc3)n2)CC1 (stereo not shown) [Entry 140, N-(4-methylcyclohexyl)-2-({[({4-[(trifluoromethyl)oxy]phenyl}oxy)acetyl]amino}methyl)-1,3-thiazole-4-carboxamide]",50 to 500

# Results, then the compound that gave them:
row,IC50 [nM],Compound
1,500 to 2000,"COc1ccccc1CNC(=O)c1csc(CNC(=O)COc2ccc(Cl)cc2)n1 [Entry 263, 2-[({[(4-chlorophenyl)oxy]acetyl}amino)methyl]-N-{[2-(methyloxy)phenyl]methyl}-1,3-thiazole-4-carboxamide]"
2,500 to 2000,"CCN1CCCC1CNC(=O)c1csc(CNC(=O)COc2ccc(OC(F)(F)F)cc2)n1 (stereo not shown) [Entry 275, N-[(1-ethylpyrrolidin-2-yl)methyl]-2-({[({4-[(trifluoromethyl)oxy]phenyl}oxy)acetyl]amino}methyl)-1,3-thiazole-4-carboxamide]"
3,500 to 2000,"O=C(COc1ccc(OC(F)(F)F)cc1)NCc1nc(C(=O)N2CCCC3CCCCC32)cs1 (stereo not shown) [Entry 252, N-{[4-(octahydroquinolin-1(2H)-ylcarbonyl)-1,3-thiazol-2-yl]methyl}-2-({4-[(trifluoromethyl)oxy]phenyl}oxy)acetamide]"
4,50 to 500,"O=C(COc1ccc(OC(F)(F)F)cc1)NCc1nc(C(=O)NCC2CC2)cs1 [Entry 216, N-(cyclopropylmethyl)-2-({[({4-[(trifluoromethyl)oxy]phenyl}oxy)acetyl]amino}methyl)-1,3-thiazole-4-carboxamide]"
5,> 2000,"NCc1nc(C(=O)NCCc2cccc(Cl)c2)co1 [Entry 307, 2-(aminomethyl)-N-[2-(3-chlorophenyl)ethyl]-1,3-oxazole-4-carboxamide]"
